Among the data in US8778959B2, “AZA-bridged ring-fused indoles and indolines” (AbbVie Inc., priority 2009, dated 2014) are Emax and EC50 values, retold here.

The term EC50 denotes the concentration giving half of the maximal effect.

In this experiment the test system is SK-N-SH human neuroblastoma cells. Description: Serum Deprivation/JC-1 Mitochondrial Membrane Potential (MMP) Assay. It is filed as cell-based. Conditions: for Emax: percent maximal intensity in JC-1 ratio normalized to peak value for 10 μM dimebolin, read-out: JC-1 max %; for EC50: serum deprivation ~18 hours, JC-1 ratio normalized to peak value for 10 μM dimebolin, single curve fit to mean of n=2-3. The procedure:
SK-N-SH human neuroblastoma cells obtained from American Type Culture Collection (Rockville, Md.) were maintained in the log phase of growth in Minimal Essential Media (MEM), 10% heat inactivated fetal calf serum and 100 units/mL antibiotic-antimycotic (AA). Cells were cultured and maintained in a humidified incubator at 37° C. under 5% CO2 and 95% air. Cells were trypsinized (0.25%) and subcultured every 3 days and used from 15-18 passages. All cell culture supplies were obtained from Invitrogen (Carlsbad, Calif.).
SK-N-SH cells were plated 2-3 days in advance at a concentration of 50,000 cells/well onto collagen coated black-walled 96 well plates (Becton-Dickinson, Bedford, Mass.) in a total volume of 200 μL. On day of experimental treatment, the media containing serum was aspirated from each well and rinsed once with MEM/1% AA without serum. The cells then were incubated overnight in 100 μL of MEM/1% AA (no serum) with and without dimebolin or novel chemical entities overnight for ˜18 hours. The following day, JC-1 dye (5,5′,6,6′-tetrachloro-1,1′,3,3′-tetraethylbenzimidazolcarbocyanide) was diluted 1:10 into MEM media according to the JC-1 Mitochondrial Membrane Potential Assay Kit: (Cayman Chemical Company, Ann Arbor, Mich.) and then 10 μL of the JC-1 dye solution was added to each well. The plates were centrifuged for 5 minutes at 400×g at room temperature followed by 35 minute incubation at 37° C. The plates were washed twice with 200 μL of provided Assay Buffer followed an addition of 100 μL of Assay Buffer to each well. The plates were read with an excitation and emission of 560 nm and 595 nM for red fluorescence and with an excitation and emission of […] and 535 nM for green fluorescence to determine the final JC-1 value taking the red to green fluorescence ratio. This assay is based on change in mitochondrial membrane potential (MMP) using this lipophilic cationic dye, JC-1, by monitoring the changes in the ratio of red to green fluorescence as the MMP depolarizes. This change in MMP reflects the health of the cell with healthy, viable cells have a high JC-1 ratio and high MMP whereas apoptotic, unhealthy cells have a low JC-1 ratio or low MMP.
For the ability of compounds to reverse the stress due to serum deprivation and increase the JC-1 ratio, the percent maximal intensity in JC-1 ratio was normalized to that induced by the peak value for 10 μM dimebolin and plotted against the compound concentration to calculate EC50 values and to control for plate-to-plate variability. Concentration-response data were analyzed using GraphPad Prism (San Diego, Calif.); the EC50 values were derived from a single curve fit to the mean data of n=2-3, in duplicates.
All compounds were dissolved in dimethyl sulfoxide at 10 mM stock solutions and tested at a concentration that the dimethyl sulfoxide levels never exceeded 1%.

As to `Cc1ccc(/C=C/c2cccc3c4c([nH]c23)C[C@H]2CC[C@@H]4N2)cn1` (single isomer, unassigned) [Example 25], the EC50 came to 5.99 µM. Where the note is “Homo sapiens, SK-N-SH, 18 h”, the Emax is 173% and the EC50 stood at 6.25 µM.
Turning to `CN1[C@@H]2CC[C@H]1c1c([nH]c3c(OCc4ccccc4)cccc13)C2` (stereo in doubt) [Example 5, (7R*,10S*)-4-(benzyloxy)-11-methyl-5,6,7,8,9,10-hexahydro-7,10-epiminocyclohepta[b]indole], for the setting “Homo sapiens, SK-N-SH, 18 h”, the Emax was 24% and the EC50 was above 30 µM.
Regarding `CN1[C@H]2CC[C@@H]1c1c([nH]c3c(OCc4ccccc4)cccc13)C2` (stereo in doubt) [Example 6, (7S*,10R*)-4-(benzyloxy)-11-methyl-5,6,7,8,9,10-hexahydro-7,10-epiminocyclohepta[b]indole], under “Homo sapiens, SK-N-SH, 18 h”, the Emax was 55% and the half-maximal effective concentration (EC50) stood at 4.59 µM.
For `CN1[C@@H]2CCC[C@H]1c1c([nH]c3c(OCc4ccccc4)cccc13)C2` (stereo in doubt) [Example 7, (−)-(7R*,11S*)-4-(benzyloxy)-12-methyl-6,7,8,9,10,11-hexahydro-5H-7,11-epiminocycloocta[b]indole], where the note is “Homo sapiens, SK-N-SH, 18 h”, the Emax worked out at 120% and the EC50 amounted to 5.41 µM.
Turning to `CN1[C@H]2CCC[C@@H]1c1c([nH]c3c(OCc4ccccc4)cccc13)C2` (stereo in doubt) [Example 8, (+)-(7S*,11R*)-4-(benzyloxy)-12-methyl-6,7,8,9,10,11-hexahydro-5H-7,11-epiminocycloocta[b]indole], for the setting “Homo sapiens, SK-N-SH, 18 h”, the Emax came out at 107% and the EC50 is 8.52 µM.
Consider `c1ccc(COc2cccc3c4c([nH]c23)C[C@@H]2CCC[C@H]4N2)cc1` (stereo in doubt) [Example 10, (7S*,11R*)-4-(benzyloxy)-6,7,8,9,10,11-hexahydro-5H-7,11-epiminocycloocta[b]indole], for which, for the setting “Homo sapiens, SK-N-SH, 18 h”, the Emax came to 128% and the EC50 is 4.81 µM.
As for `Cc1ccc(/C=C/c2cccc3c4c([nH]c23)C[C@@H]2CC[C@H]4N2C)cn1` (stereo in doubt) [Example 14, (+)-(7S*,10R*)-11-methyl-4-[(E)-2-(6-methylpyridin-3-yl)vinyl]-5,6,7,8,9,10-hexahydro-7,10-epiminocyclohepta[b]indole], under “Homo sapiens, SK-N-SH, 18 h”, the Emax worked out at 162% and the EC50 came to 4.34 µM.
Turning to `Cc1ccc(/C=C/c2cccc3c4c([nH]c23)C[C@H]2CC[C@@H]4N2C)cn1` (stereo in doubt) [Example 15, (−)-(7R*,10S*)-11-methyl-4-[(E)-2-(6-methylpyridin-3-yl)vinyl]-5,6,7,8,9,10-hexahydro-7,10-epiminocyclohepta[b]indole], for the setting “Homo sapiens, SK-N-SH, 18 h”, the Emax worked out at 160% and the EC50 was 3.04 µM.
On the same counts, the results for `Cc1ccc(C#Cc2cccc3c4c([nH]c23)C[C@@H]2CC[C@H]4N2C)cn1` (stereo in doubt) [Example 16, (+)-(7S*,10R*)-11-methyl-4-[(6-methylpyridin-3-yl)ethynyl]-5,6,7,8,9,10-hexahydro-7,10-epiminocyclohepta[b]indole] are 193% and 5.11 µM.
For `Cc1ccc(C#Cc2cccc3c4c([nH]c23)C[C@H]2CC[C@@H]4N2C)cn1` (stereo in doubt) [Example 17, (−)-(7R*,10S*)-11-methyl-4-[(6-methylpyridin-3-yl)ethynyl]-5,6,7,8,9,10-hexahydro-7,10-epiminocyclohepta[b]indole], for the setting “Homo sapiens, SK-N-SH, 18 h”, the Emax was determined as 182% and the EC50 came out at 3.87 µM.
For `Cc1ccc(CCc2cccc3c4c([nH]c23)CC2CCC4N2C)cn1` (stereo not drawn) [Example 2, 11-methyl-4-[2-(6-methylpyridin-3-yl)ethyl]-5,6,7,8,9,10-hexahydro-7,10-epiminocyclohepta[b]indole] the same measures were 173% and 5.25 µM.
On to `Cc1ccc(C#Cc2cccc3c4c([nH]c23)CC2CCC4N2C)cn1` (stereo not drawn) [Example 3, 11-methyl-4-[(6-methylpyridin-3-yl)ethynyl]-5,6,7,8,9,10-hexahydro-7,10-epiminocyclohepta[b]indole], for which, for the setting “Homo sapiens, SK-N-SH, 18 h”, the Emax stood at 244% and the EC50 was found to be 6.18 µM.
Consider `Cc1ccc(/C=C/c2ccc3[nH]c4c(c3c2)C2CCC(C4)N2C)cn1` (stereo not drawn) [Example 4, 11-methyl-2-[(E)-2-(6-methylpyridin-3-yl)vinyl]-5,6,7,8,9,10-hexahydro-7,10-epiminocyclohepta[b]indole], for which, where the note is “Homo sapiens, SK-N-SH, 18 h”, the Emax was 239% and the EC50 came to 3.62 µM.
For `CN1C2CCC1c1c([nH]c3c(-c4ccc(Cl)cc4)cccc13)C2` (stereo not drawn) [Example 11, 4-(4-chlorophenyl)-11-methyl-5,6,7,8,9,10-hexahydro-7,10-epiminocyclohepta[b]indole], where the note is “Homo sapiens, SK-N-SH, 18 h”, the Emax was 74% and the EC50 stood at 8.03 µM.
On the same counts, the results for `Cc1ccc(/C=C/c2cc(F)cc3c4c([nH]c23)CC2CCC4N2C)cn1` (stereo not drawn) [Example 12, 2-fluoro-11-methyl-4-[(E)-2-(6-methylpyridin-3-yl)vinyl]-5,6,7,8,9,10-hexahydro-7,10-epiminocyclohepta[b]indole] are 200% and 7.83 µM.
With `Cc1ccc(/C=C/c2cccc3c4c([nH]c23)CC2CCC4N2)cn1` (stereo not drawn) [Example 13, 4-[(E)-2-(6-methylpyridin-3-yl)vinyl]-5,6,7,8,9,10-hexahydro-7,10-epiminocyclohepta[b]indole], under “Homo sapiens, SK-N-SH, 18 h”, the Emax was 164% and the EC50 turned out to be 4.62 µM.
Consider `CC(=O)N1C2CCC1c1c([nH]c3c(/C=C/c4ccc(C)nc4)cccc13)C2` (stereo not drawn) [Example 18, 11-acetyl-4-[(E)-2-(6-methylpyridin-3-yl)vinyl]-5,6,7,8,9,10-hexahydro-7,10-epiminocyclohepta[b]indole], for which, for the setting “Homo sapiens, SK-N-SH, 18 h”, the Emax was determined as 146% and the concentration giving a half-maximal response (EC50) stood at 10.6 µM.
Consider `COC(=O)N1C2CCC1c1c([nH]c3c(/C=C/c4ccc(C)nc4)cccc13)C2` (stereo not drawn) [Example 19, methyl 4-[(E)-2-(6-methylpyridin-3-yl)vinyl]-5,6,7,8,9,10-hexahydro-7,10-epiminocyclohepta[b]indole-11-carboxylate], for which, under “Homo sapiens, SK-N-SH, 18 h”, the Emax was 178% and the EC50 came to 5.37 µM.
For `COC(=O)N1C2CCC1c1c([nH]c3c(-c4ccc5ccncc5c4)cccc13)C2` (stereo not drawn) [Example 20, methyl 4-isoquinolin-7-yl-5,6,7,8,9,10-hexahydro-7,10-epiminocyclohepta[b]indole-11-carboxylate] the same measures were 292% and 9.94 µM.
On the same counts, the results for `COC(=O)N1C2CCC1c1c([nH]c3c(-c4ccc5ncccc5c4)cccc13)C2` (stereo not drawn) [Example 22, methyl 4-quinolin-6-yl-5,6,7,8,9,10-hexahydro-7,10-epiminocyclohepta[b]indole-11-carboxylate] are 204% and 6.44 µM.
Consider `CC(=O)N1C2CCC1c1c([nH]c3c(-c4ccc5ncccc5c4)cccc13)C2` (stereo not drawn) [Example 23, 11-acetyl-4-quinolin-6-yl-5,6,7,8,9,10-hexahydro-7,10-epiminocyclohepta[b]indole], for which, for the setting “Homo sapiens, SK-N-SH, 18 h”, the Emax stood at 209% and the EC50 stood at 6.11 µM.
Turning to `Cc1ccc(/C=C/c2cccc3c4c(n(C)c23)CC2CCC4N2)cn1` (stereo not drawn) [Example 24, 5-methyl-4-[(E)-2-(6-methylpyridin-3-yl)vinyl]-5,6,7,8,9,10-hexahydro-7,10-epiminocyclohepta[b]indole], for the setting “Homo sapiens, SK-N-SH, 18 h”, the Emax is 217% and the EC50 was found to be 3.85 µM.
For `Clc1ccc(-c2cccc3c4c([nH]c23)CC2CCC4N2)cn1` (stereo not drawn) [Example 27, 4-(6-chloropyridin-3-yl)-5,6,7,8,9,10-hexahydro-7,10-epiminocyclohepta[b]indole] the same measures were 104% and 10.2 µM.
On to `Clc1ccc(-c2ccc(-c3cccc4c5c([nH]c34)CC3CCC5N3)cn2)cn1` (stereo not drawn) [Example 28, 4-(6′-chloro-2,3′-bipyridin-5-yl)-5,6,7,8,9,10-hexahydro-7,10-epiminocyclohepta[b]indole], for which, under “Homo sapiens, SK-N-SH, 18 h”, the Emax stood at 118% and the EC50 was 5.5 µM.
For `CC(=O)N1C2CCC1c1c([nH]c3c(-c4ccc(Cl)nc4)cccc13)C2` (stereo not drawn) [Example 29, 1-[4-(6-chloropyridin-3-yl)-5,6,7,8,9,10-hexahydro-7,10-epiminocyclohepta[b]indol-11-yl]ethanone], under “Homo sapiens, SK-N-SH, 18 h”, the Emax turned out to be 114% and the EC50 is 5.31 µM.
